Data on 4 molecules can be found in ChEMBL document CHEMBL1201862, “PubChem BioAssay data set” (2004).

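Dose response: 5 concentrations. Exposure: 48 h. Format: 96-well plates. Endpoint: linear interpolation; highest concentration if not reached. GI50: concentration for 50% inhibition of growth.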 Active and inactive are the calls of the source. Rule as the data show it: active = GI50 up to about 1.1 µM and inactive = higher. Some results are limits rather than exact numbers.

Experiment in all cases: DTP human tumour cell line panel, 48 h
Assay [1] deals with ACHN.
The subject of assay [2] is CAKI-1.
In assay [3] the test system is HCT-116.
For assay [4], the system named is HCT-15.
Assay [5] relates to HL-60.
Assay [6] has as its system Hs-578T.
Assay [7] deals with IGROV-1.
Assay [8] has as its system MDA-MB-231.
Assay [9] deals with MDA-N.
Assay [10] relates to MOLT-4.
In assay [11] the test system is NCI-H460.
Assay [12] has as its system NCI-H522.
Assay [13] deals with OVCAR-5.
Assay [14] relates to RPMI-8226.
The test system of assay [15] is SF-268.
For assay [16], the system named is SK-MEL-5.
Assay [17] deals with SN12C.
In assay [18] the test system is TK-10.
Assay [19] has as its system UACC-257.
Assay [20] has as its system UACC-62.

As to `COC1=CC(=O)c2c(ccc3ncnc(N)c23)C1=O`, the GI50 in [1] is 1.57 µM (inactive); in assay [2], 1.36 µM (inactive); in assay [3] it was 1.77 µM (inactive); in assay [4], 1.99 µM; in assay [5], 0.57 µM (active); in assay [6] it was 3.3 µM (inactive). The GI50 is 1.73 µM (inactive) in [7]; 1.19 µM (inactive) in [8]; 0.288 µM (active) in assay [9]; 0.573 µM (active) in assay [10]; 4.29 µM (inactive) in assay [11]; 2.42 µM (inactive) in assay [12]. In addition, the GI50 in assay [13] was 2 µM (inactive); in assay [14], 1.45 µM (inactive); in [15] it was 2.47 µM (inactive); in [16] it was 1.64 µM (inactive); in assay [17] it was 1.87 µM (inactive); in [18], 3.13 µM (inactive). In addition, the results for the GI50 in assay [19] and in assay [20] were 1.66 µM (inactive) and 1.81 µM (inactive), respectively.

For the molecule `N=C(N)n1nc2c(c1O)CCCC2`, the GI50 was > 100 µM (inactive) in assay [1]; > 100 µM (inactive) in [2]; > 100 µM (inactive) in assay [3]; over 100 µM in assay [4]; > 100 µM (inactive) in assay [5]; > 100 µM (inactive) in assay [6]. The GI50 is 65.2 µM (inactive) in assay [7]; > 100 µM (inactive) in assay [8]; > 100 µM (inactive) in [9]; > 100 µM (inactive) in assay [10]; > 100 µM (inactive) in [11]; > 100 µM (inactive) in assay [12]. Also, the GI50 in [13], in [14], in assay [15], in [16], in assay [17] and in assay [18] was > 100 µM (inactive) each time. Besides, the GI50 in [19] and in [20] was > 100 µM (inactive) each time.

Regarding `CC(=O)Nn1c(=S)[nH]c2ccccc21`, the GI50 is > 100 µM (inactive) in [1]; > 100 µM (inactive) in [2]; > 100 µM (inactive) in [3]; over 100 µM in [4]; > 100 µM (inactive) in [5]; > 100 µM (inactive) in assay [6]. In addition, the GI50 in assay [7], in assay [8], in assay [9], in assay [10], in assay [11] and in assay [12] was > 100 µM (inactive) each time. The GI50 in [13], in [14], in [15], in [16], in [17] and in assay [18] was > 100 µM (inactive) throughout. Moreover, the GI50 in assay [19] and in [20] was > 100 µM (inactive) in each case.

On to `CC(=O)NCCCCNCCCNC(C)=O`, for which the GI50 is > 100 µM (inactive) in [1]; > 100 µM (inactive) in [2]; > 100 µM (inactive) in assay [3]; over 100 µM in assay [4]; > 100 µM (inactive) in assay [5]; > 100 µM (inactive) in assay [6]. For the same molecule, the GI50 in assay [7], in assay [8], in assay [9], in [10], in [11] and in assay [12] was > 100 µM (inactive) throughout. The GI50 in assay [13], in assay [14], in assay [15], in [16], in assay [17] and in assay [18] was > 100 µM (inactive) in each case. In addition, the GI50 in assay [19] and in assay [20] was > 100 µM (inactive) each time.

As a reminder, the GI50 is the concentration giving 50% growth inhibition.
